Test system: LLC-EpCAM subcutaneous tumors
Test: Combination therapy of LLC-Ep subcutaneous tumors in C57BL/6 mice with indomethacin (Example 5), tumor volume
Format: in vivo
Details: after treatment for 22 days; fusion protein 25 μg/mouse i.v., 5 daily injections; indomethacin 20 μg/mL in drinking water throughout
Description: FIG. 5 is a line graph depicting the effect on subcutaneous tumors of an antibody-cytokine fusion protein administered either alone or in combination with indomethacin. The size of LLC-EpCAM subcutaneous tumors were monitored in mice treated with phosphate buffered saline (closed diamonds), a huKS-huγ1-huIL2 fusion protein (closed squares), indomethocin (closed triangles), and a combination of the huKS-huγ1-huIL2 fusion protein and indomethocin (crosses).
Female C57lB6 mice were injected subcutaneously in the mid-back with LLC-Ep cells (5×10^5 per mouse) grown in cell culture. After about two weeks, animals with palpable tumors in the range of 150-400 mm^3 were divided into four groups, with an equal distribution of tumor sizes between the groups. […] Tumor growth was monitored by volumetric measurements until animals in the control group became moribund and were euthanized. Tumor volumes were measured with calipers and calculated as V=4 π/3 (0.5L×0.5W×0.5H), where L is the length, W is the width, and H is the height of the tumor. […]
When the tumors reached 100-200 mm^3 in size (about 7 to 14 days), the mice were randomized into four groups, 5 mice per group. […] Tumor volumes were measured as described in Example 3. […]

Compound: COc1ccc2c(c1)c(CC(=O)O)c(C)n2C(=O)c1ccc(Cl)cc1 [indomethacin]
- T/C ratio: 0.60

Source: patent publication US20040033210A1, “Enhancement of antibody-cytokine fusion protein mediated immune responses by co-administration with prostaglandin inhibitor” (EMD Lexigen Research Center Corp., priority 1998, published 2004)
